Experimental data taken from ChEMBL document CHEMBL1201862, “PubChem BioAssay data set” (2004).
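Values below derive from 48-hour exposures of cells grown in 96-well plates, with endpoints linearly interpolated between the two concentrations bracketing the appropriate inhibition level. Here, GI50 denotes the concentration required for 50% inhibition of growth.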 Active and inactive are the calls of the source. Rule as the data show it: active = GI50 up to about 1.1 µM and inactive = higher.

How the values were obtained:
Test in all cases: growth of human tumour cells (NCI), 48 h
786-0 = test system: 786-0
A498 = test system: A498
A549 = test system: A549
ACHN = test system: ACHN
CAKI-1 = test system: CAKI-1
CCRF-CEM = test system: CCRF-CEM
COLO 205 = test system: COLO 205
DLD-1 = test system: DLD-1
DMS-114 = test system: DMS-114
DMS-273 = test system: DMS-273
EKVX = test system: EKVX
HCC 2998 = test system: HCC 2998
HCT-116 = test system: HCT-116
HCT-15 = test system: HCT-15
HL-60 = test system: HL-60
HOP-18 = test system: HOP-18
HOP-62 = test system: HOP-62
HOP-92 = test system: HOP-92
HT-29 = test system: HT-29
IGROV-1 = test system: IGROV-1
K562 = test system: K562
KM-20L2 = test system: KM-20L2
KM12 = test system: KM12
LOX IMVI = test system: LOX IMVI
LXFL 529 = test system: LXFL 529
M14 = test system: M14
M19-MEL = test system: M19-MEL
MOLT-4 = test system: MOLT-4
Malme-3M = test system: Malme-3M
NCI-H226 = test system: NCI-H226
NCI-H23 = test system: NCI-H23
NCI-H460 = test system: NCI-H460
NCI-H522 = test system: NCI-H522
OVCAR-3 = test system: OVCAR-3
OVCAR-4 = test system: OVCAR-4
OVCAR-5 = test system: OVCAR-5
OVCAR-8 = test system: OVCAR-8
RXF 393 = test system: RXF 393
RXF 631 = test system: RXF 631
SF-268 = test system: SF-268
SF-295 = test system: SF-295
SF-539 = test system: SF-539
SK-MEL-28 = test system: SK-MEL-28
SK-MEL-2 = test system: SK-MEL-2
SK-MEL-5 = test system: SK-MEL-5
SK-OV-3 = test system: SK-OV-3
SN12C = test system: SN12C
SNB-19 = test system: SNB-19
SNB-75 = test system: SNB-75
SNB-78 = test system: SNB-78
SR = test system: SR
SW-620 = test system: SW-620
TK-10 = test system: TK-10
U-251 = test system: U-251
UACC-257 = test system: UACC-257
UACC-62 = test system: UACC-62
UO-31 = test system: UO-31

CC(C)(C)C1(O)Cc2ccccc2C(=O)O1 (stereo not drawn)
GI50 (786-0): > 100 µM (inactive) | GI50 (A498): > 100 µM (inactive) | GI50 (A549): > 100 µM (inactive) | GI50 (ACHN): > 100 µM (inactive) | GI50 (CAKI-1): > 100 µM (inactive) | GI50 (CCRF-CEM): > 100 µM (inactive) | GI50 (COLO 205): > 100 µM (inactive) | GI50 (DLD-1): > 100 µM (inactive) | GI50 (DMS-114): > 100 µM (inactive) | GI50 (DMS-273): > 100 µM (inactive) | GI50 (EKVX): > 100 µM (inactive) | GI50 (HCC 2998): > 100 µM (inactive) | GI50 (HCT-116): > 100 µM (inactive) | GI50 (HCT-15): > 100 µM | GI50 (HL-60): > 100 µM (inactive) | GI50 (HOP-18): > 100 µM (inactive) | GI50 (HOP-62): > 100 µM (inactive) | GI50 (HOP-92): > 100 µM (inactive) | GI50 (HT-29): > 100 µM (inactive) | GI50 (IGROV-1): > 100 µM (inactive) | GI50 (K562): > 100 µM (inactive) | GI50 (KM-20L2): > 100 µM (inactive) | GI50 (KM12): > 100 µM (inactive) | GI50 (LOX IMVI): > 100 µM (inactive) | GI50 (LXFL 529): > 100 µM (inactive) | GI50 (M14): > 100 µM (inactive) | GI50 (M19-MEL): > 100 µM (inactive) | GI50 (MOLT-4): > 100 µM (inactive) | GI50 (Malme-3M): > 100 µM (inactive) | GI50 (NCI-H226): > 100 µM (inactive) | GI50 (NCI-H23): > 100 µM (inactive) | GI50 (NCI-H460): > 100 µM (inactive) | GI50 (NCI-H522): > 100 µM (inactive) | GI50 (OVCAR-3): > 100 µM (inactive) | GI50 (OVCAR-4): > 100 µM (inactive) | GI50 (OVCAR-5): > 100 µM (inactive) | GI50 (OVCAR-8): > 100 µM (inactive) | GI50 (RXF 393): > 100 µM (inactive) | GI50 (RXF 631): > 100 µM (inactive) | GI50 (SF-268): > 100 µM (inactive) | GI50 (SF-295): > 100 µM (inactive) | GI50 (SF-539): > 100 µM (inactive) | GI50 (SK-MEL-28): > 100 µM (inactive) | GI50 (SK-MEL-2): > 100 µM (inactive) | GI50 (SK-MEL-5): > 100 µM (inactive) | GI50 (SK-OV-3): > 100 µM (inactive) | GI50 (SN12C): > 100 µM (inactive) | GI50 (SNB-19): > 100 µM (inactive) | GI50 (SNB-75): > 100 µM (inactive) | GI50 (SNB-78): > 100 µM (inactive) | GI50 (SR): > 100 µM (inactive) | GI50 (SW-620): > 100 µM (inactive) | GI50 (TK-10): > 100 µM (inactive) | GI50 (U-251): > 100 µM (inactive) | GI50 (UACC-257): > 100 µM (inactive) | GI50 (UACC-62): > 100 µM (inactive) | GI50 (UO-31): > 100 µM (inactive)

CC(C)=C1CCC(CN(C)C)C1=O (stereo not drawn)
GI50 (786-0): 12.6 µM (inactive) | GI50 (A498): 19.6 µM (inactive) | GI50 (A549): > 100 µM (inactive) | GI50 (ACHN): 17.7 µM (inactive) | GI50 (CCRF-CEM): 8.95 µM (inactive) | GI50 (COLO 205): 24.1 µM (inactive) | GI50 (DLD-1): 6.85 µM (inactive) | GI50 (DMS-114): 16.5 µM (inactive) | GI50 (EKVX): 17.7 µM (inactive) | GI50 (HCC 2998): 19.1 µM (inactive) | GI50 (HCT-116): 12.9 µM (inactive) | GI50 (HCT-15): 14.8 µM | GI50 (HL-60): 3.61 µM (inactive) | GI50 (HOP-18): 22.1 µM (inactive) | GI50 (HOP-92): 20.9 µM (inactive) | GI50 (HT-29): 20.6 µM (inactive) | GI50 (IGROV-1): > 100 µM (inactive) | GI50 (K562): 6.08 µM (inactive) | GI50 (KM-20L2): 13.7 µM (inactive) | GI50 (KM12): 29.7 µM (inactive) | GI50 (LXFL 529): 12.8 µM (inactive) | GI50 (M14): 14.4 µM (inactive) | GI50 (M19-MEL): 47.2 µM (inactive) | GI50 (MOLT-4): 12.1 µM (inactive) | GI50 (Malme-3M): 16.3 µM (inactive) | GI50 (NCI-H23): 35.7 µM (inactive) | GI50 (NCI-H460): > 100 µM (inactive) | GI50 (NCI-H522): 0.196 µM (active) | GI50 (OVCAR-3): 17.6 µM (inactive) | GI50 (OVCAR-4): 15 µM (inactive) | GI50 (OVCAR-5): > 100 µM (inactive) | GI50 (OVCAR-8): 22.3 µM (inactive) | GI50 (RXF 393): 18.6 µM (inactive) | GI50 (RXF 631): 13.6 µM (inactive) | GI50 (SF-268): 31.5 µM (inactive) | GI50 (SF-295): > 100 µM (inactive) | GI50 (SF-539): > 100 µM (inactive) | GI50 (SK-MEL-28): 18.2 µM (inactive) | GI50 (SK-MEL-2): 26.3 µM (inactive) | GI50 (SK-MEL-5): 15.6 µM (inactive) | GI50 (SN12C): 18.4 µM (inactive) | GI50 (SNB-19): > 100 µM (inactive) | GI50 (SNB-75): 0.234 µM (active) | GI50 (SNB-78): > 10 µM (inactive) | GI50 (SR): 12.4 µM (inactive) | GI50 (SW-620): 6.12 µM (inactive) | GI50 (TK-10): 17.1 µM (inactive) | GI50 (U-251): > 100 µM (inactive) | GI50 (UACC-257): 17.5 µM (inactive) | GI50 (UACC-62): 18.1 µM (inactive) | GI50 (UO-31): > 100 µM (inactive)
